Experimental data as given in patent publication US5672715A, “Herbicidal substituted 3-aryl-pyrazoles” (Monsanto Company, priority 1995, dated 1997).
Values joined by “and” are separate entries in the source; they are usually repeats but may differ in a detail not shown here. Identical values can stand only once.

Key:
Type in all cases: in vivo
[1] = system: Rape; experiment: post-emergence herbicide test; conditions: post-emergence, 0.25 lb/A; read-out: % plant inhibition
Excerpt: (§1) Topsoil was placed in aluminum pans having holes in the bottom and compacted to a depth of 1.3 to 1.6 cm from the top of the pan. A predetermined number of seeds of each of several dicotyledonous and monocotyledonous annual plant species and/or vegetative propagules for the perennial plant species were placed on the soil and pressed into the soil surface. The seeds and/or vegetative propagules were covered with soil and leveled. The pans were then placed on a bench in the greenhouse and watered either from overheard irrigation or by subirrigation as needed. After the plants reach the desired age (two to three weeks), each pan, is removed individually to a spraying chamber and sprayed by means of an atomizer, operating at a spray pressure of 170.3 kPa […] at the application rates noted. In the spray solution was an amount of an emulsifying agent mixture to give a spray solution or suspension which contains about 0.4% by volume of the emulsifier. The spray solution or suspension contained a sufficient amount of the candidate chemical in order to give application rates of the active ingredient corresponding to those shown in Tables 4 and 5, while applying a total amount of solution or suspension equivalent to 1870 L/Ha (200 gallons/acre). […] The post-emergent herbicidal activity shown in these tables is the percent inhibition of each plant species. Testing with warm season and cool season plants is shown in tables 4a-4d and […], respectively.

[2] = system: Green Foxtail; experiment: post-emergence herbicide test; conditions: Setaria viridis, post-emergence, 0.25 lb/A; read-out: % plant inhibition
Excerpt: as §1

[3] = system: Morning Glory; experiment: post-emergence herbicide test; conditions: Ipomoea, post-emergence, 0.25 lb/A; read-out: % plant inhibition
Excerpt: as §1

[4] = system: Blackgrass; experiment: post-emergence herbicide test; conditions: Alopecurus myosuroides, post-emergence, 0.25 lb/A; read-out: % plant inhibition
Excerpt: as §1

[5] = system: Birdseye Speedwell; experiment: post-emergence herbicide test; conditions: post-emergence, 0.25 lb/A; read-out: % plant inhibition
Excerpt: as §1

[6] = system: Common Chickweed; experiment: post-emergence herbicide test; conditions: post-emergence, 0.25 lb/A; read-out: % plant inhibition
Excerpt: as §1

[7] = system: Velvetleaf; experiment: post-emergence herbicide test; conditions: Abutilon theophrasti, post-emergence, 0.25 lb/A; read-out: % plant inhibition
Excerpt: as §1

[8] = system: Downy Brome; experiment: post-emergence herbicide test; conditions: Bromus tectorum, post-emergence, 0.25 lb/A; read-out: % plant inhibition
Excerpt: as §1

[9] = system: Barnyardgrass; experiment: post-emergence herbicide test; conditions: Echinochloa crus-galli, post-emergence, 0.25 lb/A; read-out: % plant inhibition
Excerpt: as §1

[10] = system: Wheat; experiment: post-emergence herbicide test; conditions: Triticum aestivum, post-emergence, 0.25 lb/A; read-out: % plant inhibition
Excerpt: as §1

[11] = system: Cocklebur; experiment: post-emergence herbicide test; conditions: Xanthium strumarium, post-emergence, 0.25 lb/A; read-out: % plant inhibition
Excerpt: as §1

[12] = system: Wild Oats; experiment: post-emergence herbicide test; conditions: Avena fatua, post-emergence, 0.25 lb/A; read-out: % plant inhibition
Excerpt: as §1

[13] = system: Corn; experiment: post-emergence herbicide test; conditions: Zea mays, post-emergence, 0.25 lb/A; read-out: % plant inhibition
Excerpt: as §1

[14] = system: Seedling Johnsongrass; experiment: post-emergence herbicide test; conditions: Sorghum halepense, post-emergence, 0.25 lb/A; read-out: % plant inhibition
Excerpt: as §1

[15] = system: Soybean; experiment: post-emergence herbicide test; conditions: Glycine max, post-emergence, 0.25 lb/A; read-out: % plant inhibition
Excerpt: as §1

[16] = system: Bedstraw Catchweed; experiment: post-emergence herbicide test; conditions: Galium aparine, post-emergence, 0.25 lb/A; read-out: % plant inhibition
Excerpt: as §1

[17] = system: Giant Foxtail; experiment: post-emergence herbicide test; conditions: Setaria faberi, post-emergence, 0.25 lb/A; read-out: % plant inhibition
Excerpt: as §1

[18] = system: Rape; experiment: pre-emergence herbicide test; conditions: pre-emergence, 0.25 lb/A; read-out: % plant inhibition
Procedure: (§2) Topsoil was placed in an aluminum pan and compacted to a depth of 1.3 to 1.6 cm from the top of the pan. On the top of the soil was placed a predetermined number of seeds of each of several monocotyledonous and dicotyledonous annual plant species and/or vegetative propagules of various perennial plant species. The pan was then level filled with a cover layer of topsoil to which was added a known amount of active ingredient either prior to or after application of the cover layer. The active ingredient was dissolved or suspended in an organic solvent, e.g., acetone, or water as carrier for application to the cover layer. The pans were moved to a greenhouse bench where they were thereafter watered from below as needed to give adequate moisture for germination and growth. In some cases, an initial overhead irrigation of 1/4 inch of water was applied immediately after treatment.
(§3) Approximately 14 days after seeding and treating, the pans were observed and the results (% inhibition) were recorded.
(§4) The tables below summarize the results of the pre-emergence herbicidal activity tests of compounds of this invention tested with warm season plants (Tables 2a-2d) and cool season plants (Tables 3a and 3b). The herbicidal rating shown in these tables is the percent inhibition of each plant species. The plant species usually regarded as weeds are identified in the tables by single letter headings and crop species identified by two letter headings both headings being above the columns in accordance with the following legend: […]

[19] = system: Green Foxtail; experiment: pre-emergence herbicide test; conditions: Setaria viridis, pre-emergence; 0.25 lb/A; read-out: % plant inhibition
Procedure: as §2, §3, §4

[20] = system: Morning Glory; experiment: pre-emergence herbicide test; conditions: 0.25 lb/A
Procedure: as §2, §3, §4

[21] = system: Blackgrass; experiment: pre-emergence herbicide test; conditions: Alopecurus myosuroides, pre-emergence, 0.25 lb/A; read-out: % plant inhibition
Procedure: as §2, §3, §4

[22] = system: Birdseye Speedwell; experiment: pre-emergence herbicide test; conditions: pre-emergence, 0.25 lb/A; read-out: % plant inhibition
Procedure: as §2, §3, §4

[23] = system: Common Chickweed; experiment: pre-emergence herbicide test; conditions: pre-emergence, 0.25 lb/A; read-out: % plant inhibition
Procedure: as §2, §3, §4

[24] = system: Velvetleaf; experiment: pre-emergence herbicide test; conditions: 0.25 lb/A; for inhibition at 280.212 g/ha: Abutilon theophrasti, pre-emergence, read-out: % plant inhibition
Procedure: as §2, §3, §4

[25] = system: Downy Brome; experiment: pre-emergence herbicide test; conditions: Bromus tectorum, pre-emergence, 0.25 lb/A; read-out: % plant inhibition
Procedure: as §2, §3, §4

[26] = system: Wheat; experiment: pre-emergence herbicide test; conditions: Triticum aestivum, pre-emergence, 0.25 lb/A; read-out: % plant inhibition
Procedure: as §2, §3, §4

[27] = system: Cocklebur; experiment: pre-emergence herbicide test; conditions: Xanthium strumarium, pre-emergence, 0.25 lb/A; read-out: % plant inhibition
Procedure: as §2, §3, §4

[28] = system: Wild Oats; experiment: pre-emergence herbicide test; conditions: Avena fatua, pre-emergence, 0.25 lb/A; read-out: % plant inhibition
Procedure: as §2, §3, §4

[29] = system: Corn; experiment: pre-emergence herbicide test; conditions: 0.25 lb/A; for inhibition at 280.212 g/ha: Zea mays, pre-emergence, read-out: % plant inhibition
Procedure: as §2, §3, §4

[30] = system: Soybean; experiment: pre-emergence herbicide test; conditions: Glycine max, pre-emergence, 0.25 lb/A; read-out: % plant inhibition
Procedure: as §2, §3, §4

[31] = system: Bedstraw Catchweed; experiment: pre-emergence herbicide test; conditions: Galium aparine, pre-emergence, 0.25 lb/A; read-out: % plant inhibition
Procedure: as §2, §3, §4

[32] = system: Giant Foxtail; experiment: pre-emergence herbicide test; conditions: 0.25 lb/A; for inhibition at 280.212 g/ha: Setaria faberi, pre-emergence, read-out: % plant inhibition
Procedure: as §2, §3, §4

[33] = system: Barnyardgrass; experiment: pre-emergence herbicide test; conditions: 0.25 lb/A
Procedure: as §2, §3, §4

[34] = system: Seedling Johnsongrass; experiment: pre-emergence herbicide test; conditions: 0.25 lb/A
Procedure: as §2, §3, §4

## CCOC(=O)C(C)OC(=O)c1cc(-c2nn(C)c(C(F)(F)F)c2C)c(F)cc1Cl (stereo not shown) [Compound 20]
[1]
  inhibition at 280.212 g/ha: 25%
[2]
  inhibition at 280.212 g/ha: 25%
[3]
  inhibition at 280.212 g/ha: 98%
[4]
  inhibition at 280.212 g/ha: 35%
[5]
  inhibition at 280.212 g/ha: 100%
[6]
  inhibition at 280.212 g/ha: 98%
[7]
  inhibition at 280.212 g/ha: 100%
[8]
  inhibition at 280.212 g/ha: 40%
[9]
  inhibition at 280.212 g/ha: 85%
[10]
  inhibition at 280.212 g/ha: 22%
[11]
  inhibition at 280.212 g/ha: 90%
[12]
  inhibition at 280.212 g/ha: 45%
[13]
  inhibition at 280.212 g/ha: 8%
[14]
  inhibition at 280.212 g/ha: 80%
[15]
  inhibition at 280.212 g/ha: 35%
[16]
  inhibition at 280.212 g/ha: 95%
[17]
  inhibition at 280.212 g/ha: 75%
[18]
  inhibition at 280.212 g/ha: 95%
[19]
  inhibition at 280.212 g/ha: 100%
[20]
  % plant inhibition: 70%
[20]; Ipomoea, pre-emergence, read-out: % plant inhibition
  inhibition at 280.212 g/ha: 85%
[21]
  inhibition at 280.212 g/ha: 70%
[22]
  inhibition at 280.212 g/ha: 100%
[23]
  inhibition at 280.212 g/ha: 100%
[24]
  inhibition at 280.212 g/ha: 95%
[25]
  inhibition at 280.212 g/ha: 65%
[26]
  inhibition at 280.212 g/ha: 0%
[27]
  inhibition at 280.212 g/ha: 55%
[28]
  inhibition at 280.212 g/ha: 25%
[29]
  % plant inhibition: 10%
  inhibition at 280.212 g/ha: 15%
[30]
  inhibition at 280.212 g/ha: 5%
[31]
  inhibition at 280.212 g/ha: 100%
[32]
  % plant inhibition: 80%
  inhibition at 280.212 g/ha: 98%

## COC(=O)c1cc(-c2nn(C)c(C(F)(F)F)c2C)c(F)cc1Cl [Compound 18]
[1]
  inhibition at 280.212 g/ha: 15%
[2]
  inhibition at 280.212 g/ha: 20%
[3]
  inhibition at 280.212 g/ha: 50%
[4]
  inhibition at 280.212 g/ha: 20%
[5]
  inhibition at 280.212 g/ha: 60%
[6]
  inhibition at 280.212 g/ha: 35%
[7]
  inhibition at 280.212 g/ha: 90%
[8]
  inhibition at 280.212 g/ha: 25%
[9]
  inhibition at 280.212 g/ha: 5%
[10]
  inhibition at 280.212 g/ha: 7%
[11]
  inhibition at 280.212 g/ha: 65%
[12]
  inhibition at 280.212 g/ha: 20%
[13]
  inhibition at 280.212 g/ha: 15%
[14]
  inhibition at 280.212 g/ha: 35%
[15]
  inhibition at 280.212 g/ha: 40%
[16]
  inhibition at 280.212 g/ha: 65%
[17]
  inhibition at 280.212 g/ha: 5%
[18]
  inhibition at 280.212 g/ha: 100%
[19]
  inhibition at 280.212 g/ha: 100%
[21]
  inhibition at 280.212 g/ha: 95%
[22]
  inhibition at 280.212 g/ha: 100%
[23]
  inhibition at 280.212 g/ha: 100%
[24]
  % plant inhibition: 100%
  inhibition at 280.212 g/ha: 98%
[25]
  inhibition at 280.212 g/ha: 85%
[33]
  % plant inhibition: 99% and 93%
[33]; Echinochloa crus-galli, pre-emergence, read-out: % plant inhibition
  inhibition at 280.212 g/ha: 95%
[26]
  inhibition at 280.212 g/ha: 0%
[28]
  inhibition at 280.212 g/ha: 80%
[29]
  inhibition at 280.212 g/ha: 15%
[34]
  % plant inhibition: 95% and 85%
[34]; Sorghum halepense, pre-emergence, read-out: % plant inhibition
  inhibition at 280.212 g/ha: 90%
[31]
  inhibition at 280.212 g/ha: 100%
[32]
  % plant inhibition: 100% and 99%
  inhibition at 280.212 g/ha: 95%
